Results as given in patent US20070161628A1, “Phosphodiesterase inhibitors” (GREENPHARMA, priority 2004, published 2007).
pIC50: −log10 of the molar value.

How the values were obtained:
[1] = target: T1, human type 2 phosphodiesterase (source: U-937 cells) (Homo sapiens, UniProt O00408); assay: Inhibition of PDE2; assay type: biochemical; details: substrate 1 μM, 30 minutes at 30° C.
T1 construct: human type 2 phosphodiesterase (source: U-937 cells); endogenous in cells; host or cells: U-937 cells
Experimental: This novel family of compounds was tested as inhibitor of human type 2 phosphodiesterase (source: U-937 cells) by following the process described by Torphy, T. J., Zhou, H. L. and Cieslinski, L. B. (J. Pharmacol. Exp. Ther., 1992, 263, 1195-1205). […] A quantitative measurement of the hydrolysis product [^3H]-5′-AMP was determined by scintillation.

[2] = system: PDE1 (bovine); assay: Selectivity towards PDE1; assay type: biochemical; details: substrate [3H]cAMP+cAMP 1 μM, 30 minutes at 30° C.
Experimental: (§1) D., JACKMAN S. A. and WILKE R. (Brit. J. Pharmacol. 1989, 97, 889-897); (ii, PDE3 and PDE5) Weishaar, R. E., Burrows, S. D., Kobylarz, D. C., Quade, M. M. and Evans, D. B. (Biochem. Pharmacol., 1986, 35, 787-800); (iii, PDE6) Ballard, A. S., Gingell, C. J., Tang, K., Turner, L. A., PRICE, M. E. (J. Urol, 1998, 159, 2164-2171). […] In the case of PDE 5 and 6, the substrate used is ([^3H]cGMP+cGMP) at a concentration of 1 μM for PDE5 and 2 μM for PDE6. A quantitative measurement of the hydrolysis products [^3H]-5′-AMP and [^3H]-5′-GMP was determined by scintillation.

[3] = system: TNF-alpha in peripheral blood mononuclear cells (PBMC); assay: Anti-inflammatory properties: TNF-alpha in LPS-activated PBMC; assay type: cell-based; details: LPS 1 μg/ml, 24 hours, EIA
Experimental: The compounds according to the invention were evaluated for their anti-inflammatory properties on peripheral blood mononuclear cells (PBMC). More particularly, the cells were incubated for 24 hours in the presence of the test molecule, after activation with lipopolysaccharide (LPS) (1 μg/ml) according to the protocol described by Schindler, R., Mancilla, J., Endres, S., Ghorbani, R., Clark, S. C. and Dinarello, C. A. (Blood, 1990, 75, 40-47). After incubation, the concentrations of TNF-alpha were measured in the culture supernatants by the EIA method.

[4] = system: PDE3 (human); assay: Selectivity towards PDE3; assay type: biochemical; details: PDE1, 3, 5 and 6
Experimental: as §1

[5] = system: trabecular bone; assay: Microarchitecture and study of bone markers in mice; assay type: in vivo, C57BL6 mice; details: 5 mg/kg per day, 5 days per week, 4 weeks, subcutaneous; for effect on the bone quantity and microarchitecture (BV/TV, Tb.N): distal metaphysis of the femur, microQCT
Experimental: The object is to test the effect of the components described above on the microarchitecture of the trabecular bone. […] Results on the Bone Microarchitecture • No significant difference between the groups at the start of the treatment. No significant difference between the control (base) group and the Sham group. All the significant differences are represented by an *, *p<0.05; **p<0.01 • Several parameters (10) are recorded and analysed, such as: • BV/TV: represents the bone volume of the trabecular bone to the tissue volume, • Tb.N: trabecular number. The trabecular bone volume (BV/TV, %) and the trabecular number (Tb.N) are calculated via the “Mean Intercept Length (MIL)” method. The trabecular thickness (Tb.Th) and the trabecular space (Tb.Sp) are calculated via the method described by Hildebrand & Ruegsegger (Journal of Microscopy. 185:67-75, 1997). • BV/TV: FIG. 5 • Tb.N: FIG. 6 CONCLUSION

[6] = system: human type 4 phosphodiesterase (source: U-937 cells); assay: Inhibition of PDE4
Experimental: A quantitative measurement of the hydrolysis product [^3H]-5′-AMP was determined by scintillation.

[7] = system: primary neuron cultures (foetal rat cerebral cortex); assay: Stimulation of neurotrophic factors: primary neuron cultures observed with and without compound; assay type: cell-based
Experimental: The neurons are cultured in neurobasal medium using foetal rat cerebral cortex according to the procedure described in Example 1 and are photographed without staining 17 days after culturing. Culture A is a control culture without compound. […] Compounds according to the invention were evaluated for their neurotrophic properties. The idea is thus to observe the behaviour of a neuron cell culture in the absence and presence of such molecules. The molecule used in this example is S-tofisopam. The adult animals are coupled and the female rats are separated out the next day. After 16 days, a caesarean section is performed on the gestating female rats and the foetuses are placed in a Petri dish 100 mm in diameter. They are transferred to a laminar flow fume cupboard, in sterile medium. The foetuses are individually isolated and are dissected under a binocular magnifying glass in sterile medium. The cerebral cortex is isolated and placed in a tube containing antibiotic-free neurobasal medium. The tissue is dissociated by suction-ejection, into individual cells in a volume of 2 ml. The cell suspension is then delicately deposited on 2-ml of inactivated foetal calf serum. The tube is centrifuged at low gravity (800 g) for 5 minutes at room temperature. The cell pellet is recovered and the cells are resuspended in complete neurobasal medium. The cells are counted using a Mallassez haematimeter in the presence of trypan blue to determine the cell viability. Culturing is performed by placing 800 000 cells in Petri dishes 60 mm in diameter containing complete neurobasal medium, preheated and equilibrated in a CO2 incubator. These dishes were lined beforehand with a polylysine coat the day before the manipulation. The incubator temperature is set at 37° C., the CO2 level at 5% and the humidity is saturating. The Petri dishes containing the cells are then placed in the incubator. […] These cultures constitute primary neuron cultures. The neuron cultures as prepared above serve as controls. Five dishes are used in order to have a statistical approach. In the other dishes, the test molecule is added at different concentrations: 0.1 μmol/l, 1 μmol/l and 10 μmol/l. In each case, the manipulation is repeated 5 times. The neurons are examined by inverted phase-contrast microscope (Zeiss Axiovert 135) every day after inoculation. The neurons are photographed at various magnifications using a photography camera and are compared between series.

[8] = system: primary cultures of rat motor neuron embryonic cells; assay: Neuroprotective effect, apoptosis induced by suppression of BDNF; assay type: cell-based; details: 1 μM; apoptosis induced by BDNF deprivation
Experimental: This test was performed according to the protocol described by Estevez A. G. et al. (J. Neurosci. 1998, 18(3), 923-931). Briefly, when primary cultures of rat motor neuron embryonic cells are deprived of “brain-derived neurotrophic factor” (BDNF), an induction of neuronal “nitric oxide synthase” (NOS) was observed, resulting in the gradual death of the neurons by apoptosis: between 18 and 24 hours after making the biological preparation, more than 60% of the neurons die. In this model of induced apoptosis, the compound described in Example 1 (S-tofisopam and analogues) protects the neurons by more than 50% at a concentration of 1 μM.

T1 sequence (O00408 whole entry): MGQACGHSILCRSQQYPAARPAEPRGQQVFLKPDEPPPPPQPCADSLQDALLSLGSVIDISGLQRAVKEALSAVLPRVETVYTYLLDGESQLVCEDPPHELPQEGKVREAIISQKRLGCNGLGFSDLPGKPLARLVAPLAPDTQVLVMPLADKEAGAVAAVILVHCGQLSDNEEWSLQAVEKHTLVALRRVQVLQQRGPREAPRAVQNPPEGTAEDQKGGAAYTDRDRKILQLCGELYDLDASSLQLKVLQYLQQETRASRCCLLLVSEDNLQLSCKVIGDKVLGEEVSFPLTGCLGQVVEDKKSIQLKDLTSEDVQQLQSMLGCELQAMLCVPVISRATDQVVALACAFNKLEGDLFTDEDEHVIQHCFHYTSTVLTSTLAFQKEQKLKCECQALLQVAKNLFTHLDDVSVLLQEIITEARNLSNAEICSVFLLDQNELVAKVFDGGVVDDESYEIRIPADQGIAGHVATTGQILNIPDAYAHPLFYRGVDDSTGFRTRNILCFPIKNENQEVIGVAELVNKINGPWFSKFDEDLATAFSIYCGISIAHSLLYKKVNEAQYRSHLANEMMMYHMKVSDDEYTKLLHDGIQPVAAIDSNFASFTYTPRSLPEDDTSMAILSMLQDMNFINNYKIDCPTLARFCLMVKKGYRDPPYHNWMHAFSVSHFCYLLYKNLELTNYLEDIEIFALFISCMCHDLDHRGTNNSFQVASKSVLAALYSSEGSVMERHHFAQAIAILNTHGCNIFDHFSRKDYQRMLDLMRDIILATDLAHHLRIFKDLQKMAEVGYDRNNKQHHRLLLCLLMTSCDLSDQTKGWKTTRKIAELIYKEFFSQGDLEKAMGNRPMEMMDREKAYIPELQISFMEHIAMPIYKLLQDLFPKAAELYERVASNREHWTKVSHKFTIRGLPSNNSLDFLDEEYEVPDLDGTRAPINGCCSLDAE

For `CCOc1cc2c(cc1OCC)C(CC)C(C)=NN=C2c1ccc(OC)c(OC)c1` (racemic), which melting point is on record?
Its melting point is 91 to 93 °C.

With `CCCCCC[C@@H]([C@@H](C)O)n1cnc2c(N)ncnc21` (racemic) [EHNA, reference compound] as the molecule, how does the pIC50 [1] read?
The pIC50 was 5.68.

With `COCc1nc2c([nH]1)c(=O)n(C)c(=O)n2CC(C)C` [8-methoxy-IBMX] as the molecule, how does the pIC50 [2] read?
Its pIC50 is 5.54.

With `CCOc1cc2c(cc1OCC)[C@@H](CC)C(C)=NN=C2c1ccc(OC)c(OC)c1` [R-etofisopam, (R) 1-(3,4-dimethoxy-phenyl)-4-methyl-5-ethyl-7,8-diethoxy-5H-2,3-benzodiazepine] as the molecule, how does the pIC50 [3] read?
Its pIC50 is 7.00 to 9.00.

Which results are given for `CCOc1cc2c(cc1OCC)[C@H](CC)C(C)=NN=C2c1ccc(OC)c(OC)c1` [S-etofisopam, 5S-(3,4-dimethoxyphenyl)-5-ethyl-4-methyl-7,8-diethoxy-5H-2,3-benzodiazepine]?
inhibition of the other PDEs, especially PDE3, compared with PDE4 or PDE2 [4]: more weakly; pIC50 [3]: 7.00 to 9.00; effect on the bone quantity and microarchitecture (BV/TV, Tb.N) [5]: Identity results; pIC50 ([6]; read-out: IC50 PDE4, substrate [3H]cAMP+cAMP 1 μM, 30 minutes at 30° C.): 7.70

Which “density of the neurites with added astrocyte culture supernatant” value ([7]; astrocyte culture supernatant added, compared with control) does the source give for `CC[C@@H]1C(C)=NN=C(c2ccc(OC)c(OC)c2)c2cc(OC)c(OC)cc21` [S-tofisopam, (5S)-1-(3,4-dimethoxyphenyl)-5-ethyl-7,8-dimethoxy-4-methyl-5H-2,3-benzodiazepine] here?
The value was “increasing the density of the neurites”.

And the “cell survival: time treated neurons remain alive after application” value ([7]; control: all neurons disappeared after 15 days)?
Its value is “almost four weeks”.

And the “neurotrophic and neuroprotective role in neuron culture” value ([7]; overall conclusion)?
Its value is “not only a neurotrophic role but also a neuroprotective role”.

What about the “growth of the neurites versus control” value ([7]; primary neuron culture, test concentrations 0.1, 1 and 10 μmol/l (FIG. 1: 50 μM added on day 8)) of the same molecule?
Its value is “greater growth of the neurites than in the cells used as control”.

What about the pIC50 [1] of the same molecule?
The pIC50 was 6.30.

And the “inhibition of the other PDEs, especially PDE3, compared with PDE4 or PDE2” value [4]?
The value was “more weakly”.

And the pIC50 [3]?
Its pIC50 is 7.00 to 9.00.

And the “protection of the neurons” value [8]?
The value was “more than 50%”.

And the “markers and cellular activity: effect on bone formation and bone resorption” value [5]?
The value was “uncoupling effect: anabolic on bone formation, inhibitory on bone resorption”.

And the “effect on the bone quantity and microarchitecture (BV/TV, Tb.N)” value [5]?
The value was “positive effect”.

And the “inhibition on PDE4 relative to R-tofisopam” value ([6]; S-tofisopam versus R-tofisopam)?
Its value is “ten times higher”.

With `C[C@@H]1C[C@H]2[C@@H]3CCC4=CC(=O)C=C[C@]4(C)[C@@]3(F)[C@@H](O)C[C@]2(C)[C@@]1(O)C(=O)CO` [dexamethasone, reference compound] as the molecule, how does the pIC50 [3] read?
Its pIC50 is 5.34.
